Test results taken from paper PMC4427186, “Forskolin Suppresses Delayed-Rectifier K^+ Currents and Enhances Spike Frequency-Dependent Adaptation of Sympathetic Neurons” (PLoS ONE, 2015).

Molecular target: T1, Kv2.1 α subunit (Rattus norvegicus, UniProt P15387)
T1 construct: gene Kcnb1; homomeric channel
T1 sequence (P15387 1-857): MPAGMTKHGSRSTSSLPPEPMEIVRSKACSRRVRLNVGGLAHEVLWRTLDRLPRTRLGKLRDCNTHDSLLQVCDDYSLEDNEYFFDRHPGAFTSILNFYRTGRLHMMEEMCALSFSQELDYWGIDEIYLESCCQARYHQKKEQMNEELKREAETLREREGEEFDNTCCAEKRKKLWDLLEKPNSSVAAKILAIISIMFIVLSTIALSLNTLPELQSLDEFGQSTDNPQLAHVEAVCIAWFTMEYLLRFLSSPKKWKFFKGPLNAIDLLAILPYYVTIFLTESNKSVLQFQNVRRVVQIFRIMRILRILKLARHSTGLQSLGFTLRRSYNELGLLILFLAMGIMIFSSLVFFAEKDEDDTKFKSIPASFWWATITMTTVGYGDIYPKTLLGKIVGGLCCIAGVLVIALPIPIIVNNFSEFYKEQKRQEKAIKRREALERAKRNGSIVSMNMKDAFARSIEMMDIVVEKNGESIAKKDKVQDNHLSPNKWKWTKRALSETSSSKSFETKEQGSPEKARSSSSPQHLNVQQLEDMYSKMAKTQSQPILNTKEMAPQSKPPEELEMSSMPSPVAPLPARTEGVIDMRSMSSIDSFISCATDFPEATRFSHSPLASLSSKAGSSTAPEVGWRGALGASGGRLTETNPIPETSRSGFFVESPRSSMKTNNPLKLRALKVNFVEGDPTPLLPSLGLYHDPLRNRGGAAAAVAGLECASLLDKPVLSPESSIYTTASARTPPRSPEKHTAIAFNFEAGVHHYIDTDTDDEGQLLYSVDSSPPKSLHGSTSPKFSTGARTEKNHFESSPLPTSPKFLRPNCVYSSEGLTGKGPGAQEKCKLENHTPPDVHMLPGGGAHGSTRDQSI
Experiment: whole-cell patch clamp, tail current amplitude
Assay type: cell-based

## C=C[C@@]1(C)CC(=O)[C@]2(O)[C@@]3(C)[C@@H](O)CCC(C)(C)[C@@H]3[C@H](O)[C@H](OC(C)=O)[C@@]2(C)O1 [forskolin]
  IC50: 31.6 µM
